US9422239B1, “Dual PPAR-δ PPAR-γ agonists” (Auburn University, priority 2013, dated 2016)
Values belong to the molecule of their own block, whether it stands above or below them.

Experiments:
PPARγ (AP2-PPRE) = target: T1, PPARγ (AP2-PPRE) (Homo sapiens, UniProt P37231); test: AP2-PPRE luciferase assay in HEK-293 cells; format: cell-based; details: luciferase assay, HEK-293 cells, 10 μM
T1 construct: expressed in transfected cells; host or cells: HEK-293
T1 sequence (P37231 1-505): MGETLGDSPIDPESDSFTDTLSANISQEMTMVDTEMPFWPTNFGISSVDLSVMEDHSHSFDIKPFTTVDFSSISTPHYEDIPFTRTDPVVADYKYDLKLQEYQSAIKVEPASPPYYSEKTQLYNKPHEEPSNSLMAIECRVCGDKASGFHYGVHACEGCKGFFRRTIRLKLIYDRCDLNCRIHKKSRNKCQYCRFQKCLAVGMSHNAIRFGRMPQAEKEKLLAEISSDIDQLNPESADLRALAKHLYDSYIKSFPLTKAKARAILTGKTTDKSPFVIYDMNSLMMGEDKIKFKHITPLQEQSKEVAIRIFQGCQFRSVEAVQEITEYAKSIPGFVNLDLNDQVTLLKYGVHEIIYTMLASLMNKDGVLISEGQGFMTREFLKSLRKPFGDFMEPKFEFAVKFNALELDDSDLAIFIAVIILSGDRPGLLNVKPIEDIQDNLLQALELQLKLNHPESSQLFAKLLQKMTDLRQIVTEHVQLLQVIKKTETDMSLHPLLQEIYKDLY
T1 sequence (P19793 1-462 partner): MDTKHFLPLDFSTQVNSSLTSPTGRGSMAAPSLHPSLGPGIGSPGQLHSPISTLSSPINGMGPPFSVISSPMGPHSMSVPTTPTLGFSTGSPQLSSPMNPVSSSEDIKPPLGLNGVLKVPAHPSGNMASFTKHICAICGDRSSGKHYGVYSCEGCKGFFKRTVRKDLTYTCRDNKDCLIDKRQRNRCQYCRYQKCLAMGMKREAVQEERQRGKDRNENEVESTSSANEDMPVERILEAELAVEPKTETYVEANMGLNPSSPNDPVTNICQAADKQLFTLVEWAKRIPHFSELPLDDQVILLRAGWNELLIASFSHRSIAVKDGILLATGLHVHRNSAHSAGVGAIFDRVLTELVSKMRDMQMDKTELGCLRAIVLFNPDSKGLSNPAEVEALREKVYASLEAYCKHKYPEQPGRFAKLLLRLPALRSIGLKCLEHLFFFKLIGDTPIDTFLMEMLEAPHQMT
Text: (§1) To validate the specificity of the novel compounds towards activation of PPARγ/δ targets, we tested the compounds capacity to bind to select PPARγ/δ Peroxisome Proliferator Response Elements (PPRE). The PPRE are unique sites located in the promoter region where PPARs bind and transcriptionally activate the target genes. AP2-PPRE is the PPARγ target involved in adipocyte growth and differentiation. PDK4-PPRE is a PPARδ target involved in regulating energy metabolism in the cell. These PPREs were inserted into a PGL3 luciferase vectors containing CMV promoters (ADDGENE) using PCR. These vectors were co-transfected with RXR, PPARγ/PPARδ and p-galactosidase vectors into HEK-293 cells using Lipofectamine 2000 (Invitrogen). Relative light units (RLU) were measured using a Glomax Luminometer (Promega). Data were standardized to p-galactosidase activity using ONPG (Promega).

PPARδ (PDK4-PPRE) = target: T2, PPARδ (PDK4-PPRE) (Homo sapiens, UniProt Q03181); test: PDK4-PPRE luciferase assay in HEK-293 cells; format: cell-based
T2 construct: expressed in transfected cells; host or cells: HEK-293
T2 sequence (Q03181 1-441): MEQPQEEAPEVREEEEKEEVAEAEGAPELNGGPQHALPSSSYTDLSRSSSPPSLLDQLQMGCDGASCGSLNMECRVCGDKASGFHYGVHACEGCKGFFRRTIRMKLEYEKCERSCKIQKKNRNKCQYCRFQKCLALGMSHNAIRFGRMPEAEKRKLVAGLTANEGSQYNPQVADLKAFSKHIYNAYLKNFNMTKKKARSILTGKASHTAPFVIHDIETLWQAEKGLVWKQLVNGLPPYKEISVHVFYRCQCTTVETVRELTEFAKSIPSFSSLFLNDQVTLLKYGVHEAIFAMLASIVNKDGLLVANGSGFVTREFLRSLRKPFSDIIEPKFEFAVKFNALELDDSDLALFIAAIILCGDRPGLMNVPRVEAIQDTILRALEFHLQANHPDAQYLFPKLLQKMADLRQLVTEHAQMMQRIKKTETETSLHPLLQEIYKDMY
T2 sequence (P19793 1-462 partner): T1 sequence (P19793 1-462 partner)
Text: as §1

3T3-L1 adipocytes = test: Lipid accumulation by oil red-o staining; format: cell-based; details: 6 days, oil red-o stain
Protocol: 3T3L1 adipocytes were cultured and treated with the novel compounds for a period of 6 days. Lipid accumulation was determined by oil red-o staining, and measured the absorbance spectrophotometrically at a wavelength of 510 nm and standardized to total protein concentrations. Data from lipid accumulation studies were compared to cells treated with rosiglitazone (a full PPARγ agonist).

[1] = tested on: C2C12 skeletal muscle cells; test: Mitochondrial biogenesis markers by quantitative RT-PCR; format: cell-based; details: 4 days
Protocol: Therefore, to test the effects of the novel compounds on mitochondrial biogenesis, C2C12 skeletal muscle cells were cultured and treated with the novel compounds for 4 days. Changes associated with markers for mitochondrial biogenesis were determined by quantitative real time PCR.

[2] = Heart size (heart weight to body weight ratio); format: in vivo; details: 10 mg/kg oral daily for 1 month, wild type and db/db mice
Protocol: Diabetic db/db mice were fed a normal rodent chow diet. […] Mice were then weighed and their hearts were extracted and weighed. The heart weight of the mice compared to the body weight of the mice was then calculated based upon heart weight to body weight ratio.

db/db mice = test: Hippocampal slice electrophysiology (LTP, PTP); format: in vivo
[3] = in vivo; cited from earlier work
[4] = Biodistribution by LC-Mass Spectral analysis; details: mice, 3 mg/kg (table); for concentration at 4 h: mouse, po, 3 mg/kg

SMILES: COc1ccc(CN(CCN2C(=O)c3ccccc3C2=O)S(=O)(=O)c2c(C)cc(C)cc2C)cc1 [Compound 3-91]
Binding affinity for the AP2-PPRE (PPARγ (AP2-PPRE)): strong binding affinity | Binding affinity for the PDK4-PPRE (PPARδ (PDK4-PPRE)): less binding affinity | Lipid accumulation (3T3-L1 adipocytes): comparable to rosiglitazone

SMILES: CC(C(=O)O)c1ccc(CNCc2ccc(Cl)c(Cl)c2)cc1 (stereo not shown) [Compound 4-23]
Lipid accumulation (3T3-L1 adipocytes): less lipid accumulation

SMILES: Cc1cc(SCc2sc(-c3ccc(C(F)(F)F)c(F)c3)nc2C)ccc1OCC(=O)O [GW0742, reference compound]
Gene expression of mitochondrial markers [1]: increases

The next lines start with results.

Binding affinity for the AP2-PPRE (PPARγ (AP2-PPRE)): less binding affinity | Binding affinity for the PDK4-PPRE (PPARδ (PDK4-PPRE)): less binding affinity
SMILES: CCOC(CNCc1ccc(C(F)(F)F)cc1)OCC [Compound 3-121]
Lipid accumulation (3T3-L1 adipocytes): less lipid accumulation | Lipid accumulation (3T3-L1 adipocytes; listed as compound 3-121): insignificant induction of adiposity

Concentration ([4]; Brain, oral, 4 hours): Not Detected | concentration at 4 h ([4]; adipose, Concentration): 13 ng/mL | concentration at 4 h ([4]; adipose, Tissue Concentration): 5 ng/mL | concentration at 4 h ([4]; adipose, Tissue Distribution): 2.24 ng/mL | concentration at 4 h ([4]; blood, Concentration): 247 ng/mL | concentration at 4 h ([4]; heart, Concentration): 12.8 ng/mL | concentration at 4 h ([4]; heart, Tissue Concentration): 2.12 ng/mL | concentration at 4 h ([4]; heart, Tissue Distribution): 0.64 ng/mL | concentration at 4 h ([4]; liver, Concentration): 250 ng/mL | concentration at 4 h ([4]; liver, Tissue Concentration): 8.89 ng/mL | concentration at 4 h ([4]; liver, Tissue Distribution): 4.95 ng/mL
SMILES: CN(CCOc1ccc(CC2SC(=O)NC2=O)cc1)c1ccccn1 (stereo not shown) [Rosiglitazone, rosiglitazone, reference compound]
Heart size [2]: increase in heart size | Amelioration of LTP reduction (db/db mice; ICV): > 50% | Change in the slope of fEPSP after sixty minutes of induction of LTP (db/db mice; ICV): 148.33±2.5% | fEPSP slope (LTP studies) (db/db mice; oral): 126±5.3% | Half-life [3]: 4 h
